# Laboratory results reported in PMC10042540, “Targeting oncogenic KRasG13C with nucleotide-based covalent inhibitors” (eLife, 2023).
# Columns and labels:
# SOS = assay: Guanine nucleotide-exchange factor assay (mantdGDP fluorescence); format: biochemical; details: 5 µM KRas1-169, 10 µM mantdGDP, 0.25 or 0.5 µM SOS
# Protocol: SOS-catalysed nucleotide exchange was monitored at 25 °C in a FluoroMax-3 spectrofluorometer (excitation at 360 nm, emission at 440 nm) in 20 mM HEPES (pH 7.5), 100 mM NaCl, 2 mM MgCl2, and 1 mM TCEP. 5 µM KRas1-169 was mixed with 10 µM mantdGDP and subsequently with different concentrations of SOS (0.25 µM and 0.5 µM) (Figure 3A; Figure 3—figure supplement 1).
# [1] = system: Ras pathway (pcRaf, pAkt, pErk, pS6); assay: Electroporation into HeLa cells, western blot of downstream signalling; format: cell-based, human; details: electroporation of 50-300 µg protein
# Protocol: (§1) HeLa cells were obtained from the American Type Culture Collection (ATCC) and were cultured in DMEM medium (Gibco) supplemented with 10% fetal bovine serum (FBS) (PAN-Biotech) and 1% penicillin/streptomycin (Gibco). Cells were cultured in a humidified incubator at 37 °C in the presence of 5% CO2. The identity of the cells was validated by STR profiling and the cells were tested negative for mycoplasma contamination.
# (§2) Electroporation of full-length KRas constructs (KRasWT, KRasG13C, KRasG13C-edaGDP, KRasG13C:acetyledaGDP and KRasG13C-edaGppCp) was performed based on the protocol described by [Alex et al., 2019] using the Neon Transfection System Kit (Thermo Fisher). For electroporation, 3 million cells per experiment were harvested by trypsinization, washed with PBS, and resuspended in 85 µL of the electroporation buffer R (Thermo Fisher). Increasing amounts of recombinant protein samples for each construct (0, 50, 100, 200 and 300 µg) were diluted 1:1 in buffer R followed by the addition of 30 µL of this protein master mix to the cell suspension. This cellular slurry was loaded into a […] Neon Pipette Tip (Thermo Fisher) and electroporated with 2x35 ms pulses at 1000 V. After electroporation, the cells were washed twice with PBS (15 mL) to remove non-internalized extracellular protein and the cell pellet was resuspended in 2 mL complete growth media. Cells were transferred into six-well tissue culture plates (Sarstedt) and incubated for 24 hr at 37 °C and 5% CO2 in a humidified incubator for recovery before being processed for western blotting analysis.
# After recovery of the electroporation, cells were washed twice with ice-cold PBS and lysed in 100 µL of phosphatase and protease inhibitor containing RIPA buffer (Cell Signaling Technology). Cells were incubated on ice for 30 min and then harvested by scraping followed by centrifugation at 14,000 rpm for 10 min at 4 °C. Protein concentrations were determined using the Pierce BCA protein assay (Thermo) following the manufacturer’s recommended procedure. Equal amounts of protein (10 µg) were analyzed by SDS-PAGE and transferred to Immobilon-FL PVDF membranes (Merck Millipore) using Pierce 1-step transfer buffer (Thermo) and the Pierce Power Blotter (Thermo). Membranes were washed with ddH2O for 5 min, blocked with OdysseyBlocking Buffer TBS (Li-Cor) for 1 hr at room temperature and then incubated with primary antibodies diluted in OdysseyBlocking Buffer TBS overnight at 4 °C with gentle agitation. […] Quantification of protein levels from western blots was performed using Empiria Studio (Li-Cor) (Figure 3B, C, Figure 3—figure supplements 6–9).
# pAktS473 = assay: Electroporation into HeLa cells, western blot quantification; format: cell-based, human; details: for pAkt mean fold change: mean of cell lysates
# Protocol: as §1, §2
# (§3) After recovery of the electroporation, cells were washed twice with ice-cold PBS and lysed in 100 µL of phosphatase and protease inhibitor containing RIPA buffer (Cell Signaling Technology). Cells were incubated on ice for 30 min and then harvested by scraping followed by centrifugation at 14,000 rpm for 10 min at 4 °C. Protein concentrations were determined using the Pierce BCA protein assay (Thermo) following the manufacturer’s recommended procedure. Equal amounts of protein (10 µg) were analyzed by SDS-PAGE and transferred to Immobilon-FL PVDF membranes (Merck Millipore) using Pierce 1-step transfer buffer (Thermo) and the Pierce Power Blotter (Thermo). Membranes were washed with ddH2O for 5 min, blocked with OdysseyBlocking Buffer TBS (Li-Cor) for 1 hr at room temperature and then incubated with primary antibodies diluted in OdysseyBlocking Buffer TBS overnight at 4 °C with gentle agitation. KRas (Sigma Aldrich, SAB1404011-100UG), pcRafS338 (CST, 9427), tAkt1 (CST, 2938), pAktS473 (CST, 4060), tErk (CST, 4696), pErkT202/Y204 (CST, 4370), pS6S235/236 (CST, 4858), and β-actin (CST, 4970/Sigma-Aldrich, A5441) antibodies were used to detect the individual proteins. After primary antibody incubation, membranes were washed three times with TBS-T (50 mM Tris, 150 mM NaCl, 0.05% Tween 20, pH 7.4) for 5 min before being incubated with secondary antibodies (anti-mouse IgG (H+L) (DyLight 680 Conjugate) (CST, 5470) / anti-rabbit IgG (H+L) (DyLight 800 4 X PEG Conjugate) (CST, 5151)) diluted in OdysseyBlocking Buffer TBS for 1 hr at room temperature with gentle agitation. After secondary antibody incubation, the membranes were washed three times for 5 min with TBS-T and then scanned using an OdysseyCLx imaging system (Li-Cor). Quantification of protein levels from western blots was performed using Empiria Studio (Li-Cor) (Figure 3B, C, Figure 3—figure supplements 6–9).
# pErkT202/Y204 = assay: as above; format: cell-based, human; details: for pErk mean fold change: mean of cell lysates
# Protocol: as §1, §2, §3
# pS6S235/236 = assay: as above; format: cell-based, human; details: for pS6 mean fold change: mean of cell lysates
# Protocol: as §1, §2, §3
# pcRafS338 = assay: as above; format: cell-based, human; details: for pcRaf mean fold change: mean of cell lysates
# Protocol: as §1, §2, §3
# tAkt1 = assay: as above; format: cell-based, human; details: for tAkt mean fold change: mean of cell lysates
# Protocol: as §1, §2, §3
# tErk = assay: as above; format: cell-based, human; details: for tErk mean fold change: mean of cell lysates
# Protocol: as §1, §2, §3
substance,measurement,setting,value
"KRasG13C:acetyledaGDP: KRasG13C non-covalently loaded with acetyledaGDP, control",SOS-catalysed nucleotide exchange,SOS,efficiently catalysed nucleotide exchange
same,"downstream signalling (pcRaf, pAkt, pErk, pS6)",[1],activation of the Ras pathway comparable to KRasG13C was observed
same,pAkt fold change,"pAktS473; 50 µg, Cell lysate 1",0.68
same,pAkt fold change,"pAktS473; 50 µg, Cell lysate 2",2.89
same,pAkt fold change,"pAktS473; 50 µg, Cell lysate 3",3.02
same,pAkt mean fold change,pAktS473; 50 µg,2.20
same,pAkt fold change,"pAktS473; 100 µg, Cell lysate 1",0.79
same,pAkt fold change,"pAktS473; 100 µg, Cell lysate 2",4.04
same,pAkt fold change,"pAktS473; 100 µg, Cell lysate 3",4.42
same,pAkt mean fold change,pAktS473; 100 µg,3.08
same,pAkt fold change,"pAktS473; 200 µg, Cell lysate 1",1.19
same,pAkt fold change,"pAktS473; 200 µg, Cell lysate 2",9.05
same,pAkt fold change,"pAktS473; 200 µg, Cell lysate 3",6.20
same,pAkt mean fold change,pAktS473; 200 µg,5.48
same,pAkt fold change,"pAktS473; 300 µg, Cell lysate 1",2.16
same,pAkt fold change,"pAktS473; 300 µg, Cell lysate 2",13.30
same,pAkt fold change,"pAktS473; 300 µg, Cell lysate 3",3.81
same,pAkt mean fold change,pAktS473; 300 µg,6.42
same,pErk fold change,"pErkT202/Y204; 50 µg, Cell lysate 1",3.76
same,pErk fold change,"pErkT202/Y204; 50 µg, Cell lysate 2",14.50
same,pErk fold change,"pErkT202/Y204; 50 µg, Cell lysate 3",5.88
same,pErk mean fold change,pErkT202/Y204; 50 µg,8.05
same,pErk fold change,"pErkT202/Y204; 100 µg, Cell lysate 1",5.77
same,pErk fold change,"pErkT202/Y204; 100 µg, Cell lysate 2",17.10
same,pErk fold change,"pErkT202/Y204; 100 µg, Cell lysate 3",6.22
same,pErk mean fold change,pErkT202/Y204; 100 µg,9.70
same,pErk fold change,"pErkT202/Y204; 200 µg, Cell lysate 1",14.00
same,pErk fold change,"pErkT202/Y204; 200 µg, Cell lysate 2",22.30
same,pErk fold change,"pErkT202/Y204; 200 µg, Cell lysate 3",9.35
same,pErk mean fold change,pErkT202/Y204; 200 µg,15.22
same,pErk fold change,"pErkT202/Y204; 300 µg, Cell lysate 1",17.00
same,pErk fold change,"pErkT202/Y204; 300 µg, Cell lysate 2",29.30
same,pErk fold change,"pErkT202/Y204; 300 µg, Cell lysate 3",10.30
same,pErk mean fold change,pErkT202/Y204; 300 µg,18.87
same,pS6 fold change,"pS6S235/236; 50 µg, Cell lysate 1",1.20
same,pS6 fold change,"pS6S235/236; 50 µg, Cell lysate 2",4.69
same,pS6 fold change,"pS6S235/236; 50 µg, Cell lysate 3",4.24
same,pS6 mean fold change,pS6S235/236; 50 µg,3.38
same,pS6 fold change,"pS6S235/236; 100 µg, Cell lysate 1",1.62
same,pS6 fold change,"pS6S235/236; 100 µg, Cell lysate 2",7.62
same,pS6 fold change,"pS6S235/236; 100 µg, Cell lysate 3",3.73
same,pS6 mean fold change,pS6S235/236; 100 µg,4.32
same,pS6 fold change,"pS6S235/236; 200 µg, Cell lysate 1",3.38
same,pS6 fold change,"pS6S235/236; 200 µg, Cell lysate 2",9.20
same,pS6 fold change,"pS6S235/236; 200 µg, Cell lysate 3",7.24
same,pS6 mean fold change,pS6S235/236; 200 µg,6.61
same,pS6 fold change,"pS6S235/236; 300 µg, Cell lysate 1",2.82
same,pS6 fold change,"pS6S235/236; 300 µg, Cell lysate 2",9.13
same,pS6 fold change,"pS6S235/236; 300 µg, Cell lysate 3",7.42
same,pS6 mean fold change,pS6S235/236; 300 µg,6.46
same,pcRaf fold change,"pcRafS338; 50 µg, Cell lysate 1",8.73
same,pcRaf fold change,"pcRafS338; 50 µg, Cell lysate 2",1.10
same,pcRaf fold change,"pcRafS338; 50 µg, Cell lysate 3",15.70
same,pcRaf mean fold change,pcRafS338; 50 µg,8.51
same,pcRaf fold change,"pcRafS338; 100 µg, Cell lysate 1",8.39
same,pcRaf fold change,"pcRafS338; 100 µg, Cell lysate 2",1.51
same,pcRaf fold change,"pcRafS338; 100 µg, Cell lysate 3",22.70
same,pcRaf mean fold change,pcRafS338; 100 µg,10.87
same,pcRaf fold change,"pcRafS338; 200 µg, Cell lysate 1",13.70
same,pcRaf fold change,"pcRafS338; 200 µg, Cell lysate 2",2.17
same,pcRaf fold change,"pcRafS338; 200 µg, Cell lysate 3",32.40
same,pcRaf mean fold change,pcRafS338; 200 µg,16.09
same,pcRaf fold change,"pcRafS338; 300 µg, Cell lysate 1",10.10
same,pcRaf fold change,"pcRafS338; 300 µg, Cell lysate 2",3.88
same,pcRaf fold change,"pcRafS338; 300 µg, Cell lysate 3",30.30
same,pcRaf mean fold change,pcRafS338; 300 µg,14.76
same,tAkt fold change,"tAkt1; 50 µg, Cell lysate 1",0.92
same,tAkt fold change,"tAkt1; 50 µg, Cell lysate 2",2.42
same,tAkt fold change,"tAkt1; 50 µg, Cell lysate 3",1.53
same,tAkt mean fold change,tAkt1; 50 µg,1.62
same,tAkt fold change,"tAkt1; 100 µg, Cell lysate 1",1.23
same,tAkt fold change,"tAkt1; 100 µg, Cell lysate 2",2.03
same,tAkt fold change,"tAkt1; 100 µg, Cell lysate 3",1.95
same,tAkt mean fold change,tAkt1; 100 µg,1.74
same,tAkt fold change,"tAkt1; 200 µg, Cell lysate 1",1.36
same,tAkt fold change,"tAkt1; 200 µg, Cell lysate 2",3.63
same,tAkt fold change,"tAkt1; 200 µg, Cell lysate 3",1.80
same,tAkt mean fold change,tAkt1; 200 µg,2.26
same,tAkt fold change,"tAkt1; 300 µg, Cell lysate 1",0.81
same,tAkt fold change,"tAkt1; 300 µg, Cell lysate 2",4.18
same,tAkt fold change,"tAkt1; 300 µg, Cell lysate 3",2.17
same,tAkt mean fold change,tAkt1; 300 µg,2.39
same,tErk fold change,"tErk; 50 µg, Cell lysate 1",0.88
same,tErk fold change,"tErk; 50 µg, Cell lysate 2",0.96
same,tErk fold change,"tErk; 50 µg, Cell lysate 3",0.92
same,tErk mean fold change,tErk; 50 µg,0.92
same,tErk fold change,"tErk; 100 µg, Cell lysate 1",0.68
same,tErk fold change,"tErk; 100 µg, Cell lysate 2",0.93
same,tErk fold change,"tErk; 100 µg, Cell lysate 3",0.86
same,tErk mean fold change,tErk; 100 µg,0.82
same,tErk fold change,"tErk; 200 µg, Cell lysate 1",0.80
same,tErk fold change,"tErk; 200 µg, Cell lysate 2",0.93
same,tErk fold change,"tErk; 200 µg, Cell lysate 3",0.97
same,tErk mean fold change,tErk; 200 µg,0.90
same,tErk fold change,"tErk; 300 µg, Cell lysate 1",0.62
same,tErk fold change,"tErk; 300 µg, Cell lysate 2",0.90
same,tErk fold change,"tErk; 300 µg, Cell lysate 3",1.12
same,tErk mean fold change,tErk; 300 µg,0.88
